According to patent publication US10065970B2 (Genentech, Inc., priority 2015, dated 2018):

Target: PI3Kα (alpha) (Homo sapiens (Human), UniProt P42336)
Test: p110α (alpha) PI3K Binding Assay (ADP-Glo lipid kinase reaction)
Assay type: biochemical
Conditions: PI3K alpha 0.2 nM, ATP 40 μM, PIP2:3PS 50 μM, 120 min, room temperature; Ki by Morrison Equation; read-out: PI3Kα-(alpha) ATP (Ki) micromolar
Method in brief: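 Enzyme with PIP2:3PS lipid substrate and ATP/MgCl2 in 50 mM HEPES, 50 mM NaCl, 3 mM MgCl2, 0.01% BSA, 1% DMSO, 120 min at room temperature. ADP formed detected by ADP-Glo luminescence. Ki from 10-point dose-response curves via the Morrison equation.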

PI3Kα (alpha), sequence (P42336 whole entry): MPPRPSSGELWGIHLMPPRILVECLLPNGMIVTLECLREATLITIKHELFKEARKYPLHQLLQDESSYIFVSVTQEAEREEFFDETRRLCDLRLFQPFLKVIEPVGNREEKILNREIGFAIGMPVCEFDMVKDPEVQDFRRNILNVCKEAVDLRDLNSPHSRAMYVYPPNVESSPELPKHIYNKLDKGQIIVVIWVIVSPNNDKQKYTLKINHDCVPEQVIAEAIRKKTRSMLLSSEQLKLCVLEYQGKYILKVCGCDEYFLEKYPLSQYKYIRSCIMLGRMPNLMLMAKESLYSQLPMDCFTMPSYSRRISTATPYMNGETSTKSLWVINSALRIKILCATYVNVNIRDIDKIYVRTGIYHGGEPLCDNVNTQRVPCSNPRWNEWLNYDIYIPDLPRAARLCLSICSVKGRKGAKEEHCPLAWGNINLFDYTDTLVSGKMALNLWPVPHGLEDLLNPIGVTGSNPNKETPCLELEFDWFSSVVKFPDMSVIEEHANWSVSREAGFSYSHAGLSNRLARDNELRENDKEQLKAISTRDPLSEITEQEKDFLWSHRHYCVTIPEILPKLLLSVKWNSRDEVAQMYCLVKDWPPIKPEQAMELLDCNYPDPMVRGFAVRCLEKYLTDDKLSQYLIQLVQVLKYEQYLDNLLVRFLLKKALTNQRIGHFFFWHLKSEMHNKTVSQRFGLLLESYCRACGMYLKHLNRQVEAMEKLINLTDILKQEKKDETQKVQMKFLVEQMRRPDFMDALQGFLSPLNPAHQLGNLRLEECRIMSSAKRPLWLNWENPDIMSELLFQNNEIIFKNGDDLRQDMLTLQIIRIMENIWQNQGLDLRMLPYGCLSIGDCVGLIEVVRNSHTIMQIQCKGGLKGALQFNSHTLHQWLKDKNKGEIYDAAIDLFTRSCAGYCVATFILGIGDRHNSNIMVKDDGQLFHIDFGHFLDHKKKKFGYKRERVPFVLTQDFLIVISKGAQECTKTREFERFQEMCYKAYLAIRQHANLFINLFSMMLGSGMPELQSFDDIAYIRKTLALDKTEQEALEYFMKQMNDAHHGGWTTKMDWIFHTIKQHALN
PI3Kα (alpha), sequence (P27986 whole entry partner): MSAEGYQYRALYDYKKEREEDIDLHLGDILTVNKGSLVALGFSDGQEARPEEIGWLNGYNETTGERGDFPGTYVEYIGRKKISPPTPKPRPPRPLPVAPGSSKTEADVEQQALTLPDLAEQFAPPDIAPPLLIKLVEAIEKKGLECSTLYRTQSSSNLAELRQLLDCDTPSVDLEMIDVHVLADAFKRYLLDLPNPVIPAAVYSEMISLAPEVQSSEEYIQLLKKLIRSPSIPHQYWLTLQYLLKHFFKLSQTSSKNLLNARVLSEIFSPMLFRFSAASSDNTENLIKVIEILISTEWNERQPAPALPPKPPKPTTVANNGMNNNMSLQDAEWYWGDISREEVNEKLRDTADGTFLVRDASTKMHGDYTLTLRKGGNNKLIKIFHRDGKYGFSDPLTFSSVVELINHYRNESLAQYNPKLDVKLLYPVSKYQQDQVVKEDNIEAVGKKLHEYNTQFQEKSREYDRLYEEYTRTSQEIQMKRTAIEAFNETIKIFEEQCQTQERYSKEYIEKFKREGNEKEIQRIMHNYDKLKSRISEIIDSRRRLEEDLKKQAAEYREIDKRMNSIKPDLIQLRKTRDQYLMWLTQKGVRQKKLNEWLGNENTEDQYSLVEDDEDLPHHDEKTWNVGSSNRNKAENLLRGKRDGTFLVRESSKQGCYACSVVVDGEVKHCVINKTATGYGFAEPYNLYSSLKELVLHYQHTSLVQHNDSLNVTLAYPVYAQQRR

Row | Ki | SMILES
1 | 95 pM | NC(=O)[C@@H](Nc1cc2c3c(c1)nc(-c1cc(Cl)c4oc(N)nc4c1)n3CCCO2)C1CC1 [Example 209, (S)-2-((1-(2-Amino-7-chlorobenzo[d]oxazol-5-yl)-8,9-dihydro-7H-6-oxa-2,9a-diazabenzo[cd]azulen-4-yl)amino)-2-cyclopropylacetamide]
2 | 285000 pM | NC(=O)[C@@H](Nc1cc2c3c(c1)nc(-c1cnn(C4COC4)c1)n3CCCO2)C1CC1 [Example 210, (S)-2-Cyclopropyl-2-((1-(1-(oxetan-3-yl)-1H-pyrazol-4-yl)-8,9-dihydro-7H-6-oxa-2,9a-diazabenzo[cd]azulen-4-yl)amino)acetamide]
3 | 815000 pM | NC(=O)[C@@H](Nc1cc2c3c(c1)nc(-c1cnn(CCO)c1)n3CCCO2)C1CC1 [Example 211, (S)-2-Cyclopropyl-2-((1-(1-(2-hydroxyethyl)-1H-pyrazol-4-yl)-8,9-dihydro-7H-6-oxa-2,9a-diazabenzo[cd]azulen-4-yl)amino)acetamide]
4 | 148000 pM | NC(=O)[C@@H](Nc1cc2c3c(c1)nc(-c1cn[nH]c1)n3CCCO2)C1CC1 [Example 212, (S)-2-((1-(1H-Pyrazol-4-yl)-8,9-dihydro-7H-6-oxa-2,9a-diazabenzo[cd]azulen-4-yl)amino)-2-cyclopropylacetamide]
5 | 23800 pM | COc1ccc(-n2nc3cc(N[C@H](C(N)=O)C4CC4)cc4c3c2CCCO4)cn1 [Example 213, (S)-2-Cyclopropyl-2-((1-(6-methoxypyridin-3-yl)-1,7,8,9-tetrahydrooxepino[4,3,2-cd]indazol-4-yl)amino)acetamide]
6 | < 20 pM | NC(=O)[C@@H](Nc1cc2c3c(c1)nc(-c1ccc4nc(N)sc4c1)n3CCCCO2)C1CC1 [Example 214, (S)-2-((1-(2-Aminobenzo[d]thiazol-6-yl)-7,8,9,10-tetrahydro-6-oxa-2,10a-diazacycloocta[cd]inden-4-yl)amino)-2-cyclopropylacetamide]
7 | 424 pM | NC(=O)[C@@H](Nc1cc2c3c(c1)nc(-c1cc(F)c4nccnc4c1)n3CCCO2)C1CC1 [Example 215, (S)-2-Cyclopropyl-2-((1-(8-fluoroquinoxalin-6-yl)-8,9-dihydro-7H-6-oxa-2,9a-diazabenzo[cd]azulen-4-yl)amino)acetamide]
8 | 214 pM | CC[C@H](C(N)=O)n1cc(-c2cc3c4c(c2)nc(-c2ccc5oc(N)nc5c2)n4CCCO3)cn1 [Example 216, (R)-2-(4-(1-(2-Aminobenzo[d]oxazol-5-yl)-8,9-dihydro-7H-6-oxa-2,9a-diazabenzo[cd]azulen-4-yl)-1H-pyrazol-1-yl)butanamide]
9 | 298 pM | CC[C@@H](C(N)=O)n1cc(-c2cc3c4c(c2)nc(-c2ccc5oc(N)nc5c2)n4CCCO3)cn1 [Example 217, (S)-2-(4-(1-(2-Aminobenzo[d]oxazol-5-yl)-8,9-dihydro-7H-6-oxa-2,9a-diazabenzo[cd]azulen-4-yl)-1H-pyrazol-1-yl)butanamide]
10 | 143 pM | C[C@H](C(N)=O)n1cc(-c2cc3c4c(c2)nc(-c2ccc5oc(N)nc5c2)n4CCCO3)cn1 [Example 218, (R)-2-(4-(1-(2-Aminobenzo[d]oxazol-5-yl)-8,9-dihydro-7H-6-oxa-2,9a-diazabenzo[cd]azulen-4-yl)-1H-pyrazol-1-yl)propanamide]
11 | 242 pM | C[C@@H](C(N)=O)n1cc(-c2cc3c4c(c2)nc(-c2ccc5oc(N)nc5c2)n4CCCO3)cn1 [Example 219, (S)-2-(4-(1-(2-Aminobenzo[d]oxazol-5-yl)-8,9-dihydro-7H-6-oxa-2,9a-diazabenzo[cd]azulen-4-yl)-1H-pyrazol-1-yl)propanamide]
12 | 2920 pM | NC(=O)[C@@H]1CCCN1c1cc2c3c(c1)nc(-c1ccc4c(c1)N1CCC(=O)N=C1O4)n3CCCO2 [Example 220, (S)-1-(1-(2-Oxo-3,4-dihydro-2H-benzo[4,5]oxazolo[3,2-a]pyrimidin-7-yl)-8,9-dihydro-7H-6-oxa-2,9a-diazabenzo[cd]azulen-4-yl)pyrrolidine-2-carboxamide]
